Starred links: 1 amine or outer side, 2 acyl side, 3 side chain; linkers in the order of their positions; H or OH if unused. Non-standard residues stand in square brackets, D forms with d. No end group written: not given here. *: point of attachment. RhodamineB = CCN(CC)c1ccc2c(-c3ccccc3C(=O)*)c3ccc(=[N+](CC)CC)cc-3oc2c1; Trimesoyl = O=C(c1cc(C(=O)[*:2])cc(C(=O)[*:3])c1)[*:1]; 2Nal = N[C@@H](Cc1ccc2ccccc2c1)C(=O)O; Dap = NC[C@H](N)C(=O)O

For one data set, the system named is HEK293 cells. Kind of data set: FACS uptake of rhodamine-labeled bicyclic vs monocyclic peptide. Type of data set: cell-based, human. An excerpt: In recent years, there has been much interest in cyclic peptides as therapeutic agents and biomedical research tools (Driggers, E M et al. Nat. Rev. Drug Discov., 2008, 7, 608-624; Marsault, E and Peterson, M L. J. Med. Chem., 2011, 54, 1961-2004). For example, cyclic peptides are effective for inhibition of protein-protein interactions (Lian, W et al. J. Am. Chem. Soc., 2013, 135, 11990-11995; Liu, T et al. ACS Comb. Sci., 2011, 13, 537-546; Dewan, V et al. ACS Chem. Biol., 2012, 7, 761-769; Wu, X et al. Med. Chem. Commun., 2013, 4, 378-382), which are challenging targets for conventional small molecules. A major obstacle in developing cyclic peptide therapeutics is that they are generally impermeable to the cell membrane (Kwon, Y U and Kodadek, T. Chem. Biol., 2007, 14, 671-677; Rezai, T et al. J. Am. Chem. Soc., 2006, 128, 2510-2511; Chatterjee, J et al. Acc. Chem. Res., 2008, 41, 1331-1342). […] The bicyclic peptides were readily synthesized by forming three amide bonds between a trimesoyl scaffold and three amino groups on the corresponding linear peptide (i.e., the N-terminal amine, the side chain of a C-terminal diaminopropionic acid (Dap), and the side chain of a lysine (or ornithine, Dap) imbedded in between the CPP and target-binding motifs) (Lian, W et al. J. Am. Chem. Soc., 2013, 135, 11990-11995). […]

The test system of a further data set is NIH 3T3 cells. The data set can be described thus: Anti-pY western blot of global pY protein levels. The class given is cell-based. The conditions noted are these: 0-500 nM, 2 h. How it is done:
NIH 3T3 cells were cultured in full growth media to reach 80% confluence. The cells were starved in serum free media for 3 h and treated with different concentrations of cFΦR4-PTP1B or untagged PTP1B for 2 h, followed by 30 min incubation in media supplemented with 1 mM sodium pervanadate. The solutions were removed and the cells were washed with cold DPBS twice. The cells were detached and lysed in 50 mM Tris-HCl, pH 7.4, 150 mM NaCl, 1% NP-40, 10 mM sodium pyrophosphate, 5 mM iodoacetic acid, 10 mM NaF, 1 mM EDTA, 2 mM sodium pervanadate, 0.1 mg/mL phenylmethanesulfonyl fluoride, 1 mM benzamidine, and 0.1 mg/mL trypsin inhibitor. After 30 min incubation on ice, the cell lysate was centrifuged at 15,000 rpm for 25 min in a microcentrifuge. The total cellular proteins were separated by SDS-PAGE and transferred electrophoretically to PVDF membrane, which was immunoblotted using anti-pY antibody 4G10.
NIH 3T3 cells were incubated for 2 h in the presence of untagged PTP1B or cFΦR4-PTP1B and their global pY protein levels were analyzed by anti-pY western blotting (FIG. 12A). […] Several proteins in the 150-200 kD range were completely dephosphorylated upon the addition of 62 nM cFΦR4-PTP1B, whereas proteins of ˜80 kD remained phosphorylated at 500 nM cFΦR4-PTP1B.
(In western blotting, separated proteins are transferred to a membrane and probed.)

In data set [1] the test system is HeLa cells. The data set can be described thus: FACS uptake of FITC-labeled peptides. Type of data set: cell-based, human. The conditions noted are these: 5 μM, 2 h.
Data set [2] concerns α-chymotrypsin and trypsin. The data set can be described thus: Peptide proteolysis stability assay. Particulars: 37° C. Type of data set: in vitro ADME. How it is done:
The stability tests were carried out by slightly modifying a previously reported procedure (Frackenpohl, J et al. Chembiochem 2001, 2, 445). 24 μL of 1.5 mM peptide solution was incubated at 37° C. with 30 μL 50 μM of α-chymotrypsin and 30 μL 50 μM of trypsin in 200 μL of working buffer (50 mM Tris-HCl, pH 8.0, NaCl (100 mM), CaCl2 (10 mM)). At various time points (0-12 h), 40 μL aliquots were withdrawn and mixed with 40 μL of 15% trichloroacetic acid and incubated at 4° C. overnight. The final mixture was centrifuged at 15,000 rpm for 10 min in a microcentrifuge, and the supernatant was analyzed by reversed-phase HPLC equipped with a C18 column (Waters). The amount of remaining peptide (%) was determined by integrating the area underneath the peptide peak (monitored at 214 nm) and compared with that of control reaction (no proteases).

The subject of data set [3] is HeLa cells. Kind of data set: Live-cell confocal microscopy of FITC-labeled peptides. The class given is cell-based, human. Particulars: 5 μM. As to the method: To detect peptide internalization, 1 mL of HeLa cell suspension (5×10^4 cells) was seeded in a 35 mm glass-bottomed microwell dish (MatTek) and cultured overnight. Cells were gently washed with DPBS twice and treated with FITC labeled peptides (5 μM) and dextran^Rho (0.5 mg mL^−1) in phenol-red free DMEM containing 1% serum at 37° C. for 1 h in the presence of 5% CO2. After removal of the medium, the cells were gently washed with DPBS twice and incubated with 5 μM DRAQS in DPBS for 10 min. The cells were again washed with DPBS twice and imaged on a Visitech Infinity 3 Hawk 2D-array live cell imaging confocal microscope. Images were captured under the same parameters and adjusted under the same setting using MetaMorph (Molecular Devices).

For the substance “[Tm(AAAAA)K(RRRRΦF)J]-K(Rho) (Trimesoyl-AAAAAKRRRR[2Nal]F[Dap]K(RhodamineB); linker (positions not given here) via Trimesoyl; not fully specified (C-terminus, bridges); printed as [Tm(AAAAA)K(RRRRΦF)J]-K(Rho)) [bicyclo(FΦR4-A5)^Rho]”, the “Uptake more efficient than corresponding monocyclic peptide (compound 17)” value in the data set on HEK293 cells was roughly 3 fold. Regarding “cFΦR4-PTP1B: cFΦR4 conjugated to ybbR-tagged PTP1B catalytic domain via a thioether bond”, the “Global pY protein levels” value in the data set with NIH 3T3 cells was “concentration-dependent decrease in pY levels”. In the case of “CH3CH2CH2CO-FΦRRRRUK(FITC)-NH2 [Peptide 2 (Example 2)]”, the “Mean fluorescence intensity (MFI), total intracellular FITC fluorescence” value in the data set on HeLa cells [1] is recorded as 5530 arbitrary units (AU). Also, in data set [2], the “Half-life with protease cocktail” value is on record as roughly 20 min. Further, the “Intracellular FITC fluorescence (confocal)” value with HeLa cells [3] is recorded as “much weaker intracellular fluorescence”.

(Values after patent US10815276B2, “Cell penetrating peptides and methods of making and using thereof” (Entrada Therapeutics, Inc., priority 2014, dated 2020).)
